Data: patent US11548890B1, “HPK1 antagonists and uses thereof” (Nimbus Saturn, Inc., priority 2019, dated 2023)

Biological target: HPK1 (Homo sapiens (Human), UniProt Q92918)
Assay: HPK1 biochemical enzyme assay (microfluidic mobility shift assay)
Conditions: ATP 1 mM final concentration; 1.5 nM HPK1; 30 min preincubation; Caliper EZ Reader; read-out: HPK1 1000UMATP caliper IC50
Experimental: HPK1 biochemical enzyme assay: HPK1 enzyme inhibition was measured using a microfluidic mobility shift assay. […] Test compounds were titrated in ten point curves (top final assay concentration 3 μM), and preincubated with enzyme/substrate mix for 30 min prior to initiation of the reaction by addition of ATP (1 mM final concentration) and substrate (1 μM final concentration; Carna Biosciences) diluted in assay buffer supplemented by MgCl2 (final assay concentration of 5 mM). Following 60 min incubation at RT, the reaction was terminated by addition of 60 μl/well termination buffer (Carna Biosciences) and signal determination using a Caliper EZ Reader (Perkin Elmer, UK).
The compound numbers correspond to the compound numbers in Table 1.

Chain of HPK1 (Q92918 whole entry): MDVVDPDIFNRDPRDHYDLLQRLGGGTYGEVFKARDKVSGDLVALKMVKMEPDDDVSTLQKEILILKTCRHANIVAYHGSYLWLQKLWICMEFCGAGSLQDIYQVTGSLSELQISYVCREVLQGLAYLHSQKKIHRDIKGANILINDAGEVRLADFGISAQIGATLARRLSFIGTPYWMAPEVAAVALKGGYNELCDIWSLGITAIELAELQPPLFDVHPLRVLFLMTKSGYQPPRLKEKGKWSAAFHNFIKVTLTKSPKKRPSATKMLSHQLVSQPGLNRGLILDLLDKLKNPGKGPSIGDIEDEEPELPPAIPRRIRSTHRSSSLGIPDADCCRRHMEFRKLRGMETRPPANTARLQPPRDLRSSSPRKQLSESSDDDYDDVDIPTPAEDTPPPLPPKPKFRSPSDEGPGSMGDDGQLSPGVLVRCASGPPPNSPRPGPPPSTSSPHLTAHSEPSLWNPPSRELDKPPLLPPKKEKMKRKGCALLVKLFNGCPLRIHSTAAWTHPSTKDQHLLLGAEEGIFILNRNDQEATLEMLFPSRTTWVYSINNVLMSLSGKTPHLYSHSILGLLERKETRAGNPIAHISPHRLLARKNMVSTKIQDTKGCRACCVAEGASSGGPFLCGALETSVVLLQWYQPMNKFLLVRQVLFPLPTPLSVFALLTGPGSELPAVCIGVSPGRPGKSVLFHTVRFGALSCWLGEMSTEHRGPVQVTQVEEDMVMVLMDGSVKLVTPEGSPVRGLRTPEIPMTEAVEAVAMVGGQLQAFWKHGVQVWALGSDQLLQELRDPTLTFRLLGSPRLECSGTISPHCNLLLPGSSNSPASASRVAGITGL

Compound	IC50 [nM]
7-((6-((dimethylamino)methyl)-4-(tetrahydrofuran-2-yl)pyridin-2-yl)amino)-4-(7-fluoroimidazo[1,2-a]pyridin-3-yl)isoindolin-1-one [I-852]	< 100
CN(C)Cc1nc(Nc2ccc(-c3cnc4cc(F)ccn34)c3c2C(=O)NC3)ccc1OCC(F)F [I-835, 7-((5-(2,2-difluoroethoxy)-6-((dimethylamino)methyl)pyridin-2-yl)amino)-4-(7-fluoroimidazo[1,2-a]pyridin-3-yl)isoindolin-1-one]	< 100
CO[C@H]1CC[C@H](c2ccc(Nc3ccc(-c4cnc5cc(F)ccn45)c4c3C(=O)NC4)nc2CN(C)C)C1 [I-793, 7-((6-((dimethylamino)-methyl)-5-((1S,3S)-3-methoxycyclo-pentyl)pyridin-2-yl)amino)-4-(7-fluoroimidazo [1,2-a]pyridin-3-yl)isoindolin-1-one]	< 100
(R)-7-((5-(2- (methoxymeth- yl)morpholino) pyridin-2- yl)amino)-4- (7- methylimidazo [1,2- a]pyrimidin-3- yl)isoindolin- 1-one [I-628]	< 100
Cn1ccc2c(-c3ncc(Nc4ccc(N5CCOCC5)cn4)c4c3CNC4=O)cccc21 [I-221, 4-(1-methylindol-4-yl)-7-[(5-morpholino-2-pyridyl)amino]-2,3-dihydropy-rrolo[3,4-c]pyridin-1-one]	< 100

The remaining lines, values ahead:

IC50 [nM]	Compound
< 100	C[C@H](c1ccc(Nc2ccc(-c3cnc4cc(F)ccn34)c3c2C(=O)NC3)nc1)N(C)C [I-521, (R)-7-((5-(1-(dimethylamino)-ethyl)pyridin-2-yl)amino)-4-(7-fluoroimidazo [1,2-a]pyridin-3-yl)isoindolin-1-one]
< 100	Cc1ccn2c(-c3ccc(Nc4ccc(N5CCOCC5)cn4)c4c3CNC4=O)cnc2c1 [I-145, 4-(7-methylimidazo [1,2-a]pyridin-3-yl)-7-[(5-morpholino-2-pyridyl)amino] isoindolin-1-one]
< 100	Cn1ccc2c(-c3ncc(Nc4ccc(N5CCC(O)CC5)cn4)c4c3CNC4=O)ccnc21 [I-139, 7-[[5-(4-hydroxy-1-piperidyl)-2-pyridyl]amino]-4-(1-methylpyrrolo [2,3-b]pyridin-4-yl)-2,3-dihydropy-rrolo[3,4-c]pyridin-1-one]
< 100	O=C1NCc2c(-c3cnc4cc(F)ccn34)ccc(Nc3ccc(N4CCO[C@@H](CNC5CC5)C4)cn3)c21 [I-495, 7-[[5-[(2S)-2-[(cyclopropyl-amino)methyl]morpholin-4-yl]-2-pyridyl]amino]-4-(7-fluoroimidazo [1,2-a]pyridin-3-yl)isoindolin-1-one]
< 100	CC(C)(N)[C@H]1CN(c2ccc(Nc3ccc(-c4cnc5cc(F)ccn45)c4c3C(=O)NC4)nc2)CCO1 (single isomer, unassigned) [I-671]
